Assay results taken from ChEMBL document CHEMBL1137829, “In vitro anti-parasitic activity of Cyclosporin A analogs on Trypanosoma cruzi” (Bioorg Med Chem Lett, 2004).

How the values were obtained:
Trypanosoma cruzi [1] = experiment: Effective concentration required for the lysis of Trypanosoma cruzi trypomastigotes in blood stream after 24 hours of treatment; assay type: functional, organism-based
Trypanosoma cruzi [2] = experiment: Compound was tested for the inhibition of Trypanosoma cruzi epimastigote growth after 72 hours of treatment; assay type: functional, organism-based
[3] = Inhibition of Peptidyl-prolyl cis-trans isomerase Trypanosoma cruzi cyclophilin (CL Brener strain, p19)

Row | SMILES | EC50 (Trypanosoma cruzi [1]) | IC50 (Trypanosoma cruzi [2]; read-out: IC50) | IC50 [3] | IC50 (Trypanosoma cruzi [2])
1 | CCC/C=C(/C)[C@@H](O)[C@H]1C(=O)N[C@@H](CC)C(=O)N(C)CC(=O)N(C)[C@@H](CC(C)CO)C(=O)N[C@@H](C(C)C)C(=O)N(C)[C@@H](CC(C)C)C(=O)N[C@@H](C)C(=O)N[C@H](C)C(=O)N(C)[C@@H](CC(C)C)C(=O)N(C)[C@@H](CC(C)C)C(=O)N(C)[C@@H](C(C)C)C(=O)N1C (stereo not given in full) | 153 µM | 11.4 µM | 0.0193 µM | –
2 | CC[C@@H]1NC(=O)[C@H]([C@H](O)/C(C)=C\CCCOC)N(C)C(=O)[C@H](C(C)C)N(C)C(=O)[C@H](CC(C)C)N(C)C(=O)[C@H](CC(C)C)N(C)C(=O)[C@@H](C)NC(=O)[C@H](C)NC(=O)[C@H](CC(C)C)N(C)C(=O)[C@H](C(C)C)NC(=O)[C@H](CC(C)C)N(C)C(=O)CN(C)C1=O | 76.1 µM | 33.8 µM | 0.0255 µM | –
3 | CC[C@@H]1NC(=O)[C@H]([C@H](O)/C(C)=C\CCCN=[N+]=[N-])N(C)C(=O)[C@H](C(C)C)N(C)C(=O)[C@H](CC(C)C)N(C)C(=O)[C@H](CC(C)C)N(C)C(=O)[C@@H](C)NC(=O)[C@H](C)NC(=O)[C@H](CC(C)C)N(C)C(=O)[C@H](C(C)C)NC(=O)[C@H](CC(C)C)N(C)C(=O)CN(C)C1=O | 7.98 µM | 10.6 µM | 0.0232 µM | –
4 | CC[C@@H]1NC(=O)[C@H]([C@H](O)C(C)CCCc2ccccc2)N(C)C(=O)[C@H](C(C)C)N(C)C(=O)[C@H](CC(C)C)N(C)C(=O)[C@H](CC(C)C)N(C)C(=O)[C@@H](C)NC(=O)[C@H](C)NC(=O)[C@H](CC(C)C)N(C)C(=O)[C@H](C(C)C)NC(=O)[C@H](CC(C)C)N(C)C(=O)CN(C)C1=O (stereo not given in full) | 2.66 µM | 3.41 µM | 0.0133 µM | –
5 | C/C=C/C[C@@H](C)[C@@H](O)[C@H]1C(=O)N[C@@H](CC)C(=O)N(C)CC(=O)N(C)[C@@H](CC(C)C)C(=O)N[C@@H](C(C)C)C(=O)N(C)[C@@H](CC(C)C)C(=O)N[C@@H](C)C(=O)N[C@H](C)C(=O)N(C)[C@@H](CC(C)C)C(=O)N(C)[C@@H](CC(C)C)C(=O)N(C)[C@@H](C(C)C)C(=O)N1C [CYCLOSPORINE] | 7.19 µM | – | – | 5.39 µM
6 | CC[C@@H]1NC(=O)[C@H]([C@H](O)/C(C)=C\CCC(=O)OC(C)C)N(C)C(=O)[C@H](C(C)C)N(C)C(=O)[C@H](CC(C)C)N(C)C(=O)[C@H](CC(C)C)N(C)C(=O)[C@@H](C)NC(=O)[C@H](C)NC(=O)[C@H](CC(C)C)N(C)C(=O)[C@H](C(C)C)NC(=O)[C@H](CC(C)C)N(C)C(=O)CN(C)C1=O | 58.6 µM | 7.64 µM | – | –
7 | CCC/C=C(/C)[C@@H](O)[C@H]1C(=O)N[C@@H]([C@@H](C)OCCCO)C(=O)N(C)CC(=O)N(C)[C@@H](CC(C)C)C(=O)N[C@@H](C(C)C)C(=O)N(C)[C@@H](CC(C)C)C(=O)N[C@@H](C)C(=O)N[C@H](C)C(=O)N(C)[C@@H](CC(C)C)C(=O)N(C)[C@@H](CC(C)C)C(=O)N(C)[C@@H](C(C)C)C(=O)N1C | 36.8 µM | 18.4 µM | 0.0221 µM | –
8 | CC[C@@H]1NC(=O)[C@H]([C@H](O)C(C)C/C=C/c2ccccc2)N(C)C(=O)[C@H](C(C)C)N(C)C(=O)[C@H](CC(C)C)N(C)C(=O)[C@H](CC(C)C)N(C)C(=O)[C@@H](C)NC(=O)[C@H](C)NC(=O)[C@H](CC(C)C)N(C)C(=O)[C@H](C(C)C)NC(=O)[C@H](CC(C)C)N(C)C(=O)CN(C)C1=O (stereo not given in full) | 0.97 µM | 0.82 µM | 0.0125 µM | –
9 | C/C=C/CC(C)[C@@H](O)[C@H]1C(=O)N[C@@H](CC)C(=O)N(C)CC(=O)N(C)[C@@H](CC(C)C)C(=O)N[C@@H](C(C)C)C(=O)N(C)[C@@H](CC(C)C)C(=O)N[C@@H](C)C(=O)N[C@H]([C@H](C)O)C(=O)N(C)[C@@H](CC(C)C)C(=O)N(C)[C@@H](CC(C)C)C(=O)N(C)[C@@H](C(C)C)C(=O)N1C (stereo not given in full) | 13.4 µM | 6.93 µM | 0.0169 µM | –
